The source of these data is patent US20210348119A1, “COMPOSITIONS AND METHODS FOR CELL CULTURE” (The United States of America as Represented By The …, priority 2018, published 2021).

Where “and” joins values, the source holds several entries; their conditions need not be identical. Equal values may be shown once. Read-outs that look alike come from different tables or passages of the source.

In the experiment the test system is H9 cells. Put plainly: qHTS for survival of dissociated H9 cells (CellTiter-Glo, 24 hours after seeding). The experiment is classed as cell-based, human. The source says:
FIG. 2 schematically illustrates qHTS procedure.
All the screed compounds were received pre-plated at the pre-determined concentrations. […] Curve classification is explained in Huang et al. “Chemical genomics profiling of environmental chemical modulation of human nuclear receptors” Environ. Health. Perspect.
(In general: In qHTS, concentration-response curves come from the screen itself.)

Where [1] appears, read: H9 cell survival normalized to 10 μM Y-27632 (taken to be 100%).
Where [2] appears, read: H9 cell survival, CellTiter-Glo 24 hours after seeding; read-out: AC50 (concentration at 50% efficacy).
Setting [3] is: H9 cell survival, normalized to 10 μM Y-27632.
Where [4] appears, read: Homo sapiens, H9, 24 h, H9 cell survival normalized to 10 μM Y-27632 (taken to be 100%); read-out: Max (maximum activity value from all tested concentrations).
Where [5] appears, read: Homo sapiens, H9, 24 h; read-out: Efficacy (activity range between predicted activities at zero and infinite doses, Hill equation).
Where [6] appears, read: Homo sapiens, H9, 24 h; read-out: Max (maximum activity value from all tested concentrations).
[7] abbreviates: Homo sapiens; H9 cell survival, CellTiter-Glo 24 hours after seeding; read-out: AC50 (concentration at 50% efficacy).
Setting [8] is: Homo sapiens, H9, 24 h, H9 cell survival, CellTiter-Glo 24 hours after seeding; read-out: AC50 (concentration at 50% efficacy).
The mark [9] stands for this setting: Homo sapiens, H9, 24 h, H9 cell survival, normalized to 10 μM Y-27632; read-out: Efficacy (activity range between predicted activities at zero and infinite doses, Hill equation).

With `Cc1nc(N2CCN(C(=O)c3ccco3)CC2)c2c3c(sc2n1)CCCC3` [ML192], under setting [1], the “Max (maximum activity value from all tested concentrations)” value stood at 25.23%. Also, under setting [2], the AC50 is 0.521 µM. Besides, the “Efficacy (activity range between predicted activities at zero and infinite doses, Hill equation)” value under setting [3] is given as 13.5.

Regarding `N#Cc1cc(F)cc(-c2nc(-c3ccccn3)no2)c1` [VU 0285683], the “Max (maximum activity value from all tested concentrations)” value under setting [1] is 21.28%. Further, the “Efficacy (activity range between predicted activities at zero and infinite doses, Hill equation)” value under setting [3] was 0.

On to `COc1ccc2c(c1O)OC[C@H]1c3ccc(O)cc3O[C@@H]21` [NCGC00384860-01], for which the “Max (maximum activity value from all tested concentrations)” value under setting [1] stood at 22.82%. In addition, under setting [2], the AC50 was 18.5 µM. Also, under setting [3], the “Efficacy (activity range between predicted activities at zero and infinite doses, Hill equation)” value is 29.1.

As for `C[C@@H]1CCN(C(=O)N2CCCC2)C[C@@H]1N(C)c1ncnc2[nH]ccc12` [PF-956980], the “Max (maximum activity value from all tested concentrations)” value under setting [1] is 47.75%. Moreover, the AC50 under setting [2] is 23.3 µM. Further, the “Efficacy (activity range between predicted activities at zero and infinite doses, Hill equation)” value under setting [3] was 53.

As to `CCS(=O)(=O)N1CC(CC#N)(n2cc(-c3ncnc4[nH]ccc34)cn2)C1` [Baricitinib], under setting [4], the Emax is 115%.

On to `O=C(NCc1ccccc1)c1csc(Nc2ccncn2)n1` [Thiazovivin], for which the “Max (maximum activity value from all tested concentrations)” value under setting [1] was 88.3%. Also, the AC50 under setting [2] was 0.414 µM. The “Efficacy (activity range between predicted activities at zero and infinite doses, Hill equation)” value under setting [3] is recorded as 80.6.

As to `NS(=O)(=O)c1ccc(Nc2nc(OCC3CCCCC3)c3[nH]cnc3n2)cc1` [NU-6102], under setting [1], the “Max (maximum activity value from all tested concentrations)” value was 46.11% and 34.8%. Under setting [3], the “Efficacy (activity range between predicted activities at zero and infinite doses, Hill equation)” value is 57.9 and 43.8.

For `O=C(Nc1ccc2[nH]ncc2c1)C1CCC1` [Rhodblock 6], under setting [1], the “Max (maximum activity value from all tested concentrations)” value turned out to be 61.61%. Moreover, under setting [2], the AC50 came out at 23.3 µM. For the same compound, the “Efficacy (activity range between predicted activities at zero and infinite doses, Hill equation)” value under setting [3] is given as 67.9.

Take `Cc1[nH]c2ccccc2c1CCNC(=O)c1cccs1` [CK-636]: the “Max (maximum activity value from all tested concentrations)” value under setting [1] came out at 47.74%. Besides, the “Efficacy (activity range between predicted activities at zero and infinite doses, Hill equation)” value under setting [3] is 0.

Take `Brc1c(Br)c(Br)c2n[nH]nc2c1Br` [TBB]: the “Max (maximum activity value from all tested concentrations)” value under setting [1] worked out at 28.55%. Also, under setting [2], the AC50 worked out at 32.6 µM. Also, under setting [3], the “Efficacy (activity range between predicted activities at zero and infinite doses, Hill equation)” value is on record as 33.7.

Take `Cc1c[nH]c2ncnc(N3CCC(CN)(C(=O)Nc4cccc(OC(=O)N(C)C)c4)CC3)c12` [LX-7101]: the Emax was 21.6% under setting [5] and 53.7% under setting [6]. The AC50 under setting [7] was determined as 2.33 µM.

Take `CC[C@@](C)(Nc1ccnc(-c2c[nH]c3ncccc23)n1)C(=O)NCC(F)(F)F` [Decernotinib]: the Emax was 34% under setting [4] and 30.1% under setting [9]. The AC50 under setting [8] worked out at 2.93 µM.

Regarding `O=S(=O)(NCC1CC1)c1ccc(Nc2nccc(N3CCCc4cc(O)ccc43)n2)cc1` [Pyrintegrin], the “Max (maximum activity value from all tested concentrations)” value under setting [1] came to 27.85%. In addition, under setting [2], the AC50 turned out to be 3.29 µM. Besides, the “Efficacy (activity range between predicted activities at zero and infinite doses, Hill equation)” value under setting [3] was 31.

Regarding `COCC(=O)NC/C=C/c1ccc2ncnc(Nc3ccc(Oc4ccc(C)nc4)c(C)c3)c2c1` [CP-724714], the Emax is, setting by setting: under setting [4], 21.2%; under setting [9], 23.5%. For the same compound, under setting [8], the AC50 is 20.8 µM.

`C/C=C/C(=O)C(C)C1=CC(=O)C2=C(OC34CC[C@H](O)C(C)(C)[C@@H]3CC[C@H](C)C4(C)C2)C1=O` (stereo partly shown) [podosporin A]: the “Max (maximum activity value from all tested concentrations)” value under setting [1] is 26.17%. Also, under setting [3], the “Efficacy (activity range between predicted activities at zero and infinite doses, Hill equation)” value is given as 0.

In the case of `COc1c(Nc2ncc(Cl)c(N[C@H]3[C@@H](C(N)=O)[C@@H]4C=C[C@H]3C4)n2)ccc2c1CC[C@@H](N1CCOCC1)CC2` [CEP-28122], under setting [1], the “Max (maximum activity value from all tested concentrations)” value is listed as 23.83%. Further, under setting [2], the AC50 amounted to 0.585 µM. Also, the “Efficacy (activity range between predicted activities at zero and infinite doses, Hill equation)” value under setting [3] was 23.5.

As to (−)-Indolactam V, under setting [1], the “Max (maximum activity value from all tested concentrations)” value worked out at 51.21%. The AC50 under setting [2] is 0.833 µM. Moreover, the “Efficacy (activity range between predicted activities at zero and infinite doses, Hill equation)” value under setting [3] was 45.5.

Turning to `COCCOc1ccc2c(c1)ncn2-c1ccc2cccc(N3CCC(N)CC3)c2n1` [CP-673451], the Emax under setting [4] came out at 35.6% and the Emax under setting [9] was 0%.

For `CCC(=O)N1CCN(c2ccc(-n3c(=O)ccc4cnc5ccc(-c6cnc7ccccc7c6)cc5c43)cc2C(F)(F)F)CC1` [Torin-1], under setting [1], the “Max (maximum activity value from all tested concentrations)” value was 27.66%. Moreover, the AC50 under setting [2] was found to be 10.5 µM. In addition, the “Efficacy (activity range between predicted activities at zero and infinite doses, Hill equation)” value under setting [3] was 31.2.

Take `O=C(NCc1cccc(O)c1)Nc1nc(-c2ccncc2)cs1` [RKI-1447]: the “Max (maximum activity value from all tested concentrations)” value under setting [1] was determined as 103.2%. Further, the AC50 under setting [2] was 0.083 µM. Further, the “Efficacy (activity range between predicted activities at zero and infinite doses, Hill equation)” value under setting [3] was 106.

Take `Cc1cncc2cccc(S(=O)(=O)N3CCCN(C(=O)CN)C[C@@H]3C)c12` [Glycyl-H-1152]: the Emax under setting [4] came out at 121%.

With `O=S(=O)(N=Cc1c(O)ccc2ccccc12)c1cccs1` [STF-083010], the “Max (maximum activity value from all tested concentrations)” value under setting [1] came to 66.46%. The AC50 under setting [2] came to 26.4 µM. Moreover, the “Efficacy (activity range between predicted activities at zero and infinite doses, Hill equation)” value under setting [3] is 82.4.

As for `CN(C)c1ccc(Nc2nc(N)n(C(=O)c3c(F)cccc3F)n2)cc1` [NCGC00244250], under setting [1], the “Max (maximum activity value from all tested concentrations)” value is 58.27% and 40.04%. Moreover, the AC50 under setting [2] was 6.56 µM and 8.33 µM. The “Efficacy (activity range between predicted activities at zero and infinite doses, Hill equation)” value under setting [3] was 23.7 and 39.3.

As for `C[C@H]1[C@H](C)CC[C@]2(C(=O)O)CC[C@]3(C)C(=CC[C@@H]4[C@@]5(C)CC[C@H](O)C(C)(C)[C@@H]5CC[C@]43C)[C@H]12` [URSOLIC ACID], the Emax under setting [4] worked out at 22.3% and the Emax under setting [9] was 11.7%. Further, the AC50 under setting [8] was determined as 0.521 µM.

`O=C(NCc1cccc(O)c1)c1cc2cc(F)ccc2[nH]1` [KX1-004]: the “Max (maximum activity value from all tested concentrations)” value under setting [1] was found to be 102.2%. The AC50 under setting [2] was 3.29 µM. For the same compound, the “Efficacy (activity range between predicted activities at zero and infinite doses, Hill equation)” value under setting [3] was 103.

Regarding `N#Cc1cccc(-c2c[nH]c3ncnc(N4CCOCC4)c23)c1` [PF-06447475], under setting [1], the “Max (maximum activity value from all tested concentrations)” value was 42.8%. Besides, under setting [2], the AC50 is 16.5 µM. Also, under setting [3], the “Efficacy (activity range between predicted activities at zero and infinite doses, Hill equation)” value is on record as 44.6.

Take `CC1(CCOC2OC(CO)C(O)C(O)C2O)CCC23OC2(C1)C(O)CC1C(C)(C(=O)O)CCCC13C` (stereo not shown) [NCGC00380931-01]: under setting [1], the “Max (maximum activity value from all tested concentrations)” value is 24.96%. The AC50 under setting [2] turned out to be 11.4 µM. Besides, the “Efficacy (activity range between predicted activities at zero and infinite doses, Hill equation)” value under setting [3] is recorded as 28.

Turning to `Cc1c(O)c(O)cc2c1CC=C1[C@@]2(C)CC[C@@]2(C)[C@@H]3C[C@](C)(C(=O)O)CC[C@]3(C)CC[C@]12C` [DIHYDROCELASTROL], the Emax reads like this: under setting [5], 26.1%; under setting [6], 21.2%. For the same compound, the AC50 under setting [7] was found to be 14.7 µM.

Take `CC1=C(C(=O)Nc2cc3cn[nH]c3cc2F)C(c2ccc(C(F)(F)F)cc2)CC(=O)N1` (stereo not shown) [GSK-429286A]: the “Max (maximum activity value from all tested concentrations)” value under setting [1] amounted to 129.3%. Moreover, the AC50 under setting [2] was determined as 3.32 µM. Moreover, the “Efficacy (activity range between predicted activities at zero and infinite doses, Hill equation)” value under setting [3] is on record as 126.

Turning to `Oc1cccc2c(O)nccc12` [1,5-Isoquinolinediol], the Emax by setting is: under setting [4], 41%; under setting [9], 42.2%. Moreover, under setting [8], the AC50 came to 18.4 µM.

For `Cc1sc2c(c1C)C(c1ccc(Cl)cc1)=N[C@@H](CC(=O)NCCCCNC(=O)COc1cccc3c1C(=O)N(C1CCC(=O)NC1=O)C3=O)c1nnc(C)n1-2` (stereo partly shown) [dBETI], the “Max (maximum activity value from all tested concentrations)” value under setting [1] came to 62.14%. Besides, the AC50 under setting [2] is 0.004 µM. Also, the “Efficacy (activity range between predicted activities at zero and infinite doses, Hill equation)” value under setting [3] is recorded as −67.9.

With `Cn1c2ccccc2c2c3c(c4c5ccccc5n(CCC#N)c4c21)CNC3=O` [Go-6976], the Emax is 49.1% under setting [4] and 37.3% under setting [9]. The AC50 under setting [8] amounted to 4.69 µM.

For the compound `Nc1nc2nc[nH]c2c(=S)[nH]1` [Tioguanine], the Emax is, setting by setting: under setting [4], 21.3%; under setting [9], 0%.

`COC(=O)c1cc(Br)cnc1N1CCC(NC2CCCCC2)C(O)C1` (stereo not shown) [NCGC00386932-01]: the “Max (maximum activity value from all tested concentrations)” value under setting [1] was found to be 22.59%. Moreover, the AC50 under setting [2] turned out to be 0.004 µM. Moreover, the “Efficacy (activity range between predicted activities at zero and infinite doses, Hill equation)” value under setting [3] is −26.5.

As to `CCS(=O)(=O)N1CCN(c2ccc(Nc3ncc(C(N)=O)c(NC4CC4)n3)cc2)CC1` [Cerdulatinib], the Emax under setting [4] was found to be 39% and the Emax under setting [9] was 33.6%. Besides, under setting [8], the AC50 was determined as 2.93 µM.

In the case of `Clc1ccc(C2(c3ccc(-c4cn[nH]c4)cc3)CCNCC2)cc1` [AT-7867], the “Max (maximum activity value from all tested concentrations)” value under setting [1] was 119.5% and 118.4%. Under setting [3], the “Efficacy (activity range between predicted activities at zero and infinite doses, Hill equation)” value is 92.2 and 104.

For the compound `Cn1c(=O)c2c(ncn2CC2OCCO2)n(C)c1=O` [Doxofylline], under setting [8], the AC50 turned out to be 0.521 µM. For the same compound, the Emax by setting is: (Homo sapiens, H9, 24 h, read-out: Efficacy (activity range between predicted activities at zero and infinite doses, Hill equation)) 12.1%; (Homo sapiens, H9, 24 h, read-out: Max (maximum activity value from all tested concentrations)) 22.5%.
